Assay results as given in PMC10791743, “Selective CK1α degraders exert antiproliferative activity against a broad range of human cancer cell lines” (Nature Communications, 2024).
Values joined by “and” are separate entries in the source; they are usually repeats but may differ in a detail not shown here. Identical values can stand only once. Like-named read-outs stand apart in the source and are kept apart here.

Legend:
IKZF1 = molecular target: T1, IKZF1 (Homo sapiens, UniProt Q13422+Q96SW2); assay: IKZF1 HiBiT live-cell kinetic degradation assay (Jurkat cells); assay type: cell-based
T1 construct: engineered by CRISPR/Cas9 to express endogenous IKZF1 (Jurkat cells) with a HiBiT tag
T1 sequence (Q13422 whole entry): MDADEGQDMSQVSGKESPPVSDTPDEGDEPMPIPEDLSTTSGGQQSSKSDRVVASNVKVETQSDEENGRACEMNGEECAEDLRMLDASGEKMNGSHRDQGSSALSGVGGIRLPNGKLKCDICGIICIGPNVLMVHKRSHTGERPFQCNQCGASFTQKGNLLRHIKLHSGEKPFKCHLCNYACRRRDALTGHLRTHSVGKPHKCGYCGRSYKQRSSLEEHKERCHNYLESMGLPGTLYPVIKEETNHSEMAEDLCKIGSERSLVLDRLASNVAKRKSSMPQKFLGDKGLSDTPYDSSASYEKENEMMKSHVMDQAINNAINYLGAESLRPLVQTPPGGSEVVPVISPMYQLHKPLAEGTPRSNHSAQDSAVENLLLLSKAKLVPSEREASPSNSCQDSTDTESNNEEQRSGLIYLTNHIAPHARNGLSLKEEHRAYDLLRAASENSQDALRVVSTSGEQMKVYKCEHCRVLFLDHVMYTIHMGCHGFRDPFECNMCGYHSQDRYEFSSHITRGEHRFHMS
T1 sequence (Q96SW2 whole entry): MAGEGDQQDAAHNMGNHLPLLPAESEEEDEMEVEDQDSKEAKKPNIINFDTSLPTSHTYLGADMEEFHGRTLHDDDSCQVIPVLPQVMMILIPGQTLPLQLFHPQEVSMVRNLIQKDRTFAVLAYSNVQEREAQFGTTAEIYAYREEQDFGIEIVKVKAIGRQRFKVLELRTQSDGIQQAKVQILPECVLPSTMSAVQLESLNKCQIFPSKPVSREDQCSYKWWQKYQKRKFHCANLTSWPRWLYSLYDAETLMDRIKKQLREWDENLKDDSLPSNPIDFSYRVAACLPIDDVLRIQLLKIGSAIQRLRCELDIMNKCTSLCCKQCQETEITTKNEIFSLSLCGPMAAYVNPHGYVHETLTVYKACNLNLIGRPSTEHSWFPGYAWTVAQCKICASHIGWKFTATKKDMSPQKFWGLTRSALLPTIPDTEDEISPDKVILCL
T1 sequence (Q16531 whole entry partner): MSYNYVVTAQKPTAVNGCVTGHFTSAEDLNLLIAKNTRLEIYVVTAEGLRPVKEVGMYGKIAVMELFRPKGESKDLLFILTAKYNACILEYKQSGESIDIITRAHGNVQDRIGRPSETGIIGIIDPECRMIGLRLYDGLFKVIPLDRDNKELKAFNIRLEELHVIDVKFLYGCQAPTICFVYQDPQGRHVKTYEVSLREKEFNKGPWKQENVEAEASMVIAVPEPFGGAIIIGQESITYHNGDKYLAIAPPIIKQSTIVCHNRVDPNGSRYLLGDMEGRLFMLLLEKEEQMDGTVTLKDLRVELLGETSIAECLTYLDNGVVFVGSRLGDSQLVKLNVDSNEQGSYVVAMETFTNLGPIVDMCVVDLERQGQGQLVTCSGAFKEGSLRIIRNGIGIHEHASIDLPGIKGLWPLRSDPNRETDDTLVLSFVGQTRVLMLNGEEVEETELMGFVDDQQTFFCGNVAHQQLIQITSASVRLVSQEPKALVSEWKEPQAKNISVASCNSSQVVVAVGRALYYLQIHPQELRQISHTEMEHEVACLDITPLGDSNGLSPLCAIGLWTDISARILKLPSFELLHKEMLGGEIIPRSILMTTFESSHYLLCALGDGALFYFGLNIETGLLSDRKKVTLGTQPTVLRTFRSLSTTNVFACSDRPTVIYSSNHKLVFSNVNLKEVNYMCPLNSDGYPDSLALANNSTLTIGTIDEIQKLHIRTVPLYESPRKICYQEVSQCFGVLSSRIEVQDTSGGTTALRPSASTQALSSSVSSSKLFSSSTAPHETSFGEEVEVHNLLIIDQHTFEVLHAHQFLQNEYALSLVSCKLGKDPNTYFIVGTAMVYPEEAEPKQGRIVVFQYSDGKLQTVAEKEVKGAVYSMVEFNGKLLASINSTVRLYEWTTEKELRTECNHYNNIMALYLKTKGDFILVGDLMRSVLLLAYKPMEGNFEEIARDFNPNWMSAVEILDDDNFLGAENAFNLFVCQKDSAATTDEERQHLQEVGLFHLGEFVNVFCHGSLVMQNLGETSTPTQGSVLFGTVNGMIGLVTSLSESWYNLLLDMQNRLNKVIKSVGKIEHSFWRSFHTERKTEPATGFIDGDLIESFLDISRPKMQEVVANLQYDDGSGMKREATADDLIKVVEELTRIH
Text: To measure cellular protein levels, we used cell lines that have been engineered by CRISPR/Cas9 to express endogenous CK1α (HEK293 cells) or IKZF1 (Jurkat cells) with a HiBiT tag, which when coupled with LgBiT expression forms NanoBiT, a bioluminescent protein that can be used for kinetic studies of protein degradation. […] Cell viability was also monitored with CellTiter Glo 2.0 (Promega) at the completion of the experiment to ensure that loss of protein was not a consequence of a loss of cell viability.
IKZF1-HiBiT Jurkat LgBiT stable cells were seeded at 60,000 cells/well in 50% growth media/50% CO2 independent medium supplemented with 10% FBS and 1× Endurazine substrate. […] A dose–response curve was generated by performing 3-fold dilutions of each compound including a DMSO-only control in growth media. For live cell kinetic degradation assays, diluted compounds were added to CK1α and β-catenin plates and placed in a GloMax Discover (Promega, Cat. #GM3000) preheated to 37 °C or added to IKZF1 plates and placed in a CLARIOstar Plus (BMG LABTECH) preheated to 37 °C.
Relative protein level was determined based on normalization to the DMSO control and reported at Fractional RLUs. Degradation rate and degradation maximums were calculated from Fractional RLUs as previously described[38] using GraphPad Prism software. β-catenin stabilization time of onset for each concentration curve was calculated in GraphPad Prism by fitting an unconstrained plateau followed by one phase association model using the equation below (Y = IF(X < X0, Y0,Y0+(Plateau−Y0)*(1−exp(−K*(X−X0))))). The parameter, X0 was used as time of onset for each compound concentration.

[1] = Liver microsomes stability assay, mouse; assay type: in vitro ADME
Description: page 31: using a REMS Autosampler (World Precision Instruments, Sarasota, […]1 cells were grown for 5 days to reach a consistent confluency level monitored by epithelial voltohmmeter to confirm the intactness of the confluent polarized monolayer. For transport experiments, each cultured monolayer on the 96-well plate was washed twice with a transport buffer (HBSS/25 mM […] The cell-based permeability assay was initiated by the addition of each compound solution (10 μmol/L) into inserts (apical side, A) or receivers (basolateral side, B). After incubated […] (if basal to apical permeability), and concentrations were assessed by UPLC/MS (Waters; Milford, MA). All compounds were tested in triplicates. The A→B (or B→A) apparent permeability coefficients (Papp) of each compound were calculated using the equation (3): […], where dQ/dt equals the flux of a drug across the monolayer, the parameters of A equals the surface area of total insert well, and C0 is the initial concentration of substrate in the donor compartment. The efflux ratio was determined by dividing the Papp in the B-A direction by the Papp in the A-B direction. […] NADPH regenerating agent solutions A and B (Corning GentestTM, Cat. No: 451220) were purchased from Discovery Labware (Woburn, MA). Mouse liver microsomes (CD-1, pooled, GibcoTM, Cat. No: MSMCPL) were obtained from Thermo Fisher Scientific (Fredrick, MD). Pooled human liver microsomes (mixed gender, Cat. No: E0630) were purchased from XenoTech (Lenexa, KS). Stock solutions of test compounds were prepared at 10 mM in DMSO. Sample preparation for microsomal stability was modified from Di's publications3,4. […] and 4 hours) by Labcyte Echo 650 acoustic dispenser (Beckman Coulter Life Sciences, Indianapolis, IN). All compounds were tested in triplicate per time point. […] Plasma stability assay5: The degradation of human or mouse plasma was assessed by monitoring the gradual reduction of the parent compound over specified time intervals (0, 3, 24, and 48 hours). […]

[2] = Jurkat, 0.111 uM, read-out: IKZF1 Percent Maximum Degradation
[3] = Jurkat, 10 µM, over 24 h, read-out: IKZF1 Dmax (HiBiT)

Cc1cccc(C(=O)Nc2ccc3c(c2)CN(C2CCC(=O)NC2=O)C3=O)c1 (stereo not shown) [SJ0040]
IKZF1 Percent Maximum Degradation (IKZF1; 10 uM, replicates, listed as SJ10040): -2.54% and -2.18% and 5.17% and -2.35%
Dmax at 0.111 µM (IKZF1; [2]): 0%
Dmax at 10 µM (IKZF1; [3]): < 10%

O=C1CCC(N2Cc3cc(Nc4noc5ccccc45)ccc3C2=O)C(=O)N1 (stereo not shown) [SJ3149]
IKZF1 Percent Maximum Degradation (IKZF1; 10 uM, replicates): 11.66% and -2.50% and 4.13% and 1.42%
Dmax at 10 µM (IKZF1; [3]): < 10%
half-life at 10 µM ([1]; CD-1, mouse, liver microsomes, pH 7.4, read-out: Microsome stability t1/2): > 600 min

O=C1CCC(N2Cc3c(CNC(=O)c4ccc(F)cc4)cccc3C2=O)C(=O)N1 (stereo not shown) [SJ7095]
IKZF1 Percent Maximum Degradation (IKZF1; 0.111 uM): 51.56% and 53.98% and 57.51%
IKZF1 Percent Maximum Degradation (IKZF1; 0.333 uM): 65.57% and 67.60% and 69.65%
IKZF1 Percent Maximum Degradation (IKZF1; 1 uM): 74.04% and 75.26% and 77.24%
IKZF1 Percent Maximum Degradation (IKZF1; 3 uM): 79.22% and 78.05% and 80.15%
IKZF1 Percent Maximum Degradation (IKZF1; 10 uM, replicates): 80.57% and 81.85% and 92.17%
Dmax at 0.111 µM (IKZF1; [2]): 51.7%
Dmax at 0.333 µM (IKZF1; Jurkat, 0.333 uM, read-out: IKZF1 Percent Maximum Degradation): 64.8%
Dmax at 1 µM (IKZF1; Jurkat, 1 uM, read-out: IKZF1 Percent Maximum Degradation): 73.8%
Dmax at 3 µM (IKZF1; Jurkat, 3 uM, read-out: IKZF1 Percent Maximum Degradation): 78.4%
Dmax at 10 µM (IKZF1; Jurkat, 10 uM, replicates, read-out: IKZF1 Percent Maximum Degradation): 80%
DC50 (IKZF1; Jurkat, at 4 h): 69 nM

O=C1CCC(N2Cc3cc(Nc4noc5ccccc45)ccc3C2=O)C(=O)N1 (stereo not shown) [SJ001043149-1]
Ke [1]: -0.01
t(1/2) [1]: -69.12
